# Patent US11958915B2, “Methods for treatment and diagnosis of non-alcoholic steatohepatitis and/or hepatocellular carcinoma” (Marshall University Research Corporation, priority 2020, dated 2024)
# Assays:
# [1] = test system: two human HCC cell lines (HEP3B and SNU475); test: Protein expression by western blotting/confocal microscopy, two human HCC cell lines; assay type: cell-based; settings: two Human HCC cells exposed to digoxin
# Method: (§1) In-vitro studies: cell lines and cell culture. Human HCC cell lines (HEP3B and SNU475 from ATCC, Cambridge, Mass.) were checked regularly for Mycoplasma contamination using RT-PCR kit while growing in culture with high glucose DMEM media supplemented with 10% FBS and 1% Penicillin/Streptomycin (HEP3), or with RPMI 1640 media supplemented with 10% heat inactivated FBS and 1% Penicillin/Streptomycin (SNU475) in 37° C. humidified incubator in presence of CO2 at 5%.
# Confocal microscopy assessment on Immuno-stained cells/liver tissue. For in vitro studies, immunocytochemistry was performed on both human HCC cell lines as previously described. Briefly, the treated for 4 hours cells and the untreated cells were plated on glass coverslips and allowed to reach 70% confluency. […] Next day, slides were incubated with secondary antibodies (Alexa Fluor 488 or 549) and mounted with Vectashield mounting media on slides containing DAPI (Vector Laboratories, Inc., H-1800).
# Western Blotting. […] Blocked membranes were incubated with the specific primary/secondary antibodies for protein signals to be detected by the Pierce ECL kit (Thermo Fisher Scientific, Waltham, Mass.), and quantified using ImageJ software.
# [2] = test system: two human HCC cell lines (HEP3B and SNU475); test: MTT cell proliferation assay, two human HCC cell lines; assay type: cell-based; settings: PI3K/Akt pathway inhibitors on two human HCC cell lines
# Method: as §1
# MTT Cell proliferation assay was performed by plating 5000 cells/well in 6 wells (per condition) of 96 well plates and allowed to adhere for 24 hours, when media was replaced with media±treatment agent for another 24 hours to finally assess cell proliferation according to the manufacturer's instructions (MTT assay, from #ATCC® 30-1010K, Cambridge, Mass.). Digoxin was dissolved in serum free media before addition to cells at designated concentrations.
structure (smiles),measurement,setting,value
C[C@H]1O[C@@H](O[C@H]2[C@@H](O)C[C@H](O[C@H]3[C@@H](O)C[C@H](O[C@H]4CC[C@@]5(C)[C@H](CC[C@@H]6[C@@H]5C[C@@H](O)[C@]5(C)[C@@H](C7=CC(=O)OC7)CC[C@]65O)C4)O[C@@H]3C)O[C@@H]2C)C[C@H](O)[C@@H]1O [digoxin],expression of survivin,[1],increased the expression of survivin
CC(C)(C)n1nc(-c2ccc(Cl)cc2)c2c(N)ncnc21 [PP2],cell proliferation (MTT assay),[2],inhibited cell proliferation
N#C/C(=C/c1ccc(O)c(O)c1)C(=O)NCc1ccccc1 [AG490],cell proliferation (MTT assay),[2],inhibited cell proliferation
